Test results reported in ChEMBL document CHEMBL1909046, “DrugMatrix in vitro pharmacology data”.

Tests used:
[1] = DRUGMATRIX: Sodium/nucleoside co-transporter radioligand binding (ligand: nitrobenzylthioinosine); assay type: cell membranes, Cavia porcellus, Dunkin-Hartley, Cerebral cortex, Membrane; settings: Not Active = under 50% inhibition at 10 µM
Calcitonin receptor = target: T1, Calcitonin receptor (Homo sapiens, UniProt P30988); assay type: cell membranes, Membrane; settings: t47d; note: in other assays of this panel Not Active means under 50% inhibition at 10 µM
T1 sequence (P30988 whole entry): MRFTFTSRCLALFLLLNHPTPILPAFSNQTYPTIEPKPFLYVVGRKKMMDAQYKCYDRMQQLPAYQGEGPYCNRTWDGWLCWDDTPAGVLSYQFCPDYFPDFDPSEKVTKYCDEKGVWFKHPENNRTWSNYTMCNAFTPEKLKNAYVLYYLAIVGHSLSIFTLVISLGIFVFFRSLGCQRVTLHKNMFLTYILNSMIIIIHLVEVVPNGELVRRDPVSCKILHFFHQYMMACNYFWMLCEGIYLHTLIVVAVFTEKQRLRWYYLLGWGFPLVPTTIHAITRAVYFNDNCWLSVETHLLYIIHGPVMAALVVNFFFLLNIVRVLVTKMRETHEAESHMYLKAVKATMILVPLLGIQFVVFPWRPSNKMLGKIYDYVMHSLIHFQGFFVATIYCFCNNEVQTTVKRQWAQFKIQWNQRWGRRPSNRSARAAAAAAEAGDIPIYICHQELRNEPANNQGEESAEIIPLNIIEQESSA

[2] = DRUGMATRIX: Serotonin (5-Hydroxytryptamine) 5-HT3 radioligand binding (ligand: [3H] GR-65630); assay type: cell membranes, Membrane; settings: hek293; Not Active = under 50% inhibition at 10 µM
[3] = target: 5-hydroxytryptamine receptor 4 (Cavia porcellus, UniProt O70528); assay type: cell membranes, Dunkin-Hartley, Striatum, Membrane; note: in other assays of this panel Not Active means under 50% inhibition at 10 µM
[4] = DRUGMATRIX: Sigma2 radioligand binding (ligand: [3H] Ifenprodil); assay type: cell membranes, Rattus norvegicus, Wistar, Brain, Membrane; settings: Not Active = under 50% inhibition at 10 µM
[5] = target: T2, C-X-C chemokine receptor type 1 (Homo sapiens, UniProt P25024); note: in other assays of this panel Not Active means under 50% inhibition at 10 µM
T2 sequence (P25024 whole entry): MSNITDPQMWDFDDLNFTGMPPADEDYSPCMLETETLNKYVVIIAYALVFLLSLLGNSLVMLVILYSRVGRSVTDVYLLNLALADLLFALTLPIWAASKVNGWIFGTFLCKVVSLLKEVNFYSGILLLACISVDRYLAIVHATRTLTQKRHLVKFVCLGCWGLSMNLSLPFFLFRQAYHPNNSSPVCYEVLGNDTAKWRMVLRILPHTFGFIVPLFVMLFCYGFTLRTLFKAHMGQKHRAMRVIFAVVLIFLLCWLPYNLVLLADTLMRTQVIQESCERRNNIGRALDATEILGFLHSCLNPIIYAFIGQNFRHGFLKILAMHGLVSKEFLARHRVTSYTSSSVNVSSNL

D(1A) dopamine receptor = D(1A) dopamine receptor (Homo sapiens, UniProt P21728); assay: DRUGMATRIX: Dopamine D1 radioligand binding (ligand: [3H] SCH-23390); assay type: cell membranes, CHO, Membrane; settings: cho; Not Active = under 50% inhibition at 10 µM
[6] = target: Sodium-dependent dopamine transporter (Homo sapiens, UniProt Q01959); assay: DRUGMATRIX: Dopamine Transporter radioligand binding (ligand: [125I] RTI-55); assay type: cell membranes, CHO-K1, Membrane; settings: cho-k1; Not Active = under 50% inhibition at 10 µM
[7] = DRUGMATRIX: GABAA, Muscimol, Central radioligand binding (ligand: [3H] Muscimol); assay type: cell membranes, Rattus norvegicus, Wistar, Brain, Membrane; settings: Not Active = under 50% inhibition at 10 µM
[8] = DRUGMATRIX: Glutamate, AMPA radioligand binding (ligand: [3H] AMPA); assay type: cell membranes, Rattus norvegicus, Wistar, Cerebral cortex, Membrane; settings: Not Active = under 50% inhibition at 10 µM
[9] = DRUGMATRIX: Glutamate, NMDA, Phencyclidine radioligand binding (ligand: [3H] TCP); assay type: cell membranes, Rattus norvegicus, Wistar, Cerebral cortex, Membrane; settings: Not Active = under 50% inhibition at 10 µM
Insulin receptor = Insulin receptor (Rattus norvegicus, UniProt P15127); assay type: cell membranes, Wistar, Liver, Membrane; note: in other assays of this panel Not Active means under 50% inhibition at 10 µM
[10] = target: T3, Muscarinic acetylcholine receptor M4 (Homo sapiens, UniProt P08173); assay type: cell membranes, CHO-K1, Membrane; settings: cho-k1; note: in other assays of this panel Not Active means under 50% inhibition at 10 µM
T3 sequence (P08173 whole entry): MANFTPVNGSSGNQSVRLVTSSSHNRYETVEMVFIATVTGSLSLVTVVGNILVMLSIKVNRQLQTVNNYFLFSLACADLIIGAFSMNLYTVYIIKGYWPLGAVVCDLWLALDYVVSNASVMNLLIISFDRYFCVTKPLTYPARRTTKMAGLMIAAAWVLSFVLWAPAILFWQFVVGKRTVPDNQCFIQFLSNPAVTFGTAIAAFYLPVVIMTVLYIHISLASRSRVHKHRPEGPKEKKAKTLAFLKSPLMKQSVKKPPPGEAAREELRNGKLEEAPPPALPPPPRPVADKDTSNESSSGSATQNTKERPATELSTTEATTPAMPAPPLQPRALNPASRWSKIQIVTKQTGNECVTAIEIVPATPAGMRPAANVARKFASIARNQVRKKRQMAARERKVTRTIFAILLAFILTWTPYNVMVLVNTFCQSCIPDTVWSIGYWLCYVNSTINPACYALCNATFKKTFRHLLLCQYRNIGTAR

[11] = DRUGMATRIX: Phorbol Ester radioligand binding (ligand: [3H] PDBu); assay type: cell membranes, Mus musculus, ICR, Brain, Membrane; settings: Not Active = under 50% inhibition at 10 µM
[12] = target: cGMP-specific 3',5'-cyclic phosphodiesterase (Homo sapiens, UniProt O76074); assay: DRUGMATRIX: Phosphodiesterase PDE5 enzyme inhibition (substrate: [3H]cGMP + cGMP); assay type: tissue-based, Platelet; settings: platelet; Not Active = under 50% inhibition at 10 µM
Neutrophil elastase = target: T4, Neutrophil elastase (Homo sapiens, UniProt P08246); assay type: tissue-based
T4 sequence (P08246 whole entry): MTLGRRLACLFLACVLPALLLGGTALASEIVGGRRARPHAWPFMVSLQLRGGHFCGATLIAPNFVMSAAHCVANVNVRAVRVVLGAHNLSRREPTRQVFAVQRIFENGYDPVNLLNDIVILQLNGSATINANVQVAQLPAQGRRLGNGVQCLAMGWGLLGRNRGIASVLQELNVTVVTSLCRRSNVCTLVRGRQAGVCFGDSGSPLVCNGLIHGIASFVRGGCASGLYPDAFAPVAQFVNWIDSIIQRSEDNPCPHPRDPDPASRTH

[13] = target: Mitogen-activated protein kinase 1 (Homo sapiens, UniProt P28482); assay: DRUGMATRIX: Protein Serine/Threonine Kinase, ERK2 enzyme inhibition (substrate: Myelin Basic Protein); parameters: species or system Escherichia coli; settings: Not Active = under 50% inhibition at 10 µM
[14] = target: Mitogen-activated protein kinase 14 (Homo sapiens, UniProt Q16539); parameters: species or system Escherichia coli
[15] = target: Protein phosphatase 3 catalytic subunit alpha (Homo sapiens, UniProt Q08209); parameters: species or system Escherichia coli
[16] = target: Tyrosine-protein kinase Fyn (Homo sapiens, UniProt P06241); assay: biochemical; assay type: cell-based, Insect cells; settings: insect cells
Tyrosine-protein kinase Fyn, sequence (P06241 whole entry): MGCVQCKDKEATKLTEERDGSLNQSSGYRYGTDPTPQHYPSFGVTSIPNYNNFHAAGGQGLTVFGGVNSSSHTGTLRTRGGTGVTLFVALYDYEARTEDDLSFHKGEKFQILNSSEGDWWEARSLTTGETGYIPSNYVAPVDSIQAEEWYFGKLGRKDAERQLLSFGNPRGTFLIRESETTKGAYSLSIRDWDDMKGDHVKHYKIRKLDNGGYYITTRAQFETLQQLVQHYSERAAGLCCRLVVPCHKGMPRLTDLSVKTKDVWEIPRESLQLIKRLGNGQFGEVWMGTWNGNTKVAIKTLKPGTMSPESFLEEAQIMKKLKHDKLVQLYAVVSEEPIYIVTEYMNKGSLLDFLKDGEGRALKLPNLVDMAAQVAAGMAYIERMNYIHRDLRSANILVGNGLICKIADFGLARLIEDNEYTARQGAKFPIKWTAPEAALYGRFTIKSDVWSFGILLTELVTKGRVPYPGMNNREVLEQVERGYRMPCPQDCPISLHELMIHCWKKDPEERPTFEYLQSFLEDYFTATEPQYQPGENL

5-hydroxytryptamine receptor 4, sequence (O70528 whole entry): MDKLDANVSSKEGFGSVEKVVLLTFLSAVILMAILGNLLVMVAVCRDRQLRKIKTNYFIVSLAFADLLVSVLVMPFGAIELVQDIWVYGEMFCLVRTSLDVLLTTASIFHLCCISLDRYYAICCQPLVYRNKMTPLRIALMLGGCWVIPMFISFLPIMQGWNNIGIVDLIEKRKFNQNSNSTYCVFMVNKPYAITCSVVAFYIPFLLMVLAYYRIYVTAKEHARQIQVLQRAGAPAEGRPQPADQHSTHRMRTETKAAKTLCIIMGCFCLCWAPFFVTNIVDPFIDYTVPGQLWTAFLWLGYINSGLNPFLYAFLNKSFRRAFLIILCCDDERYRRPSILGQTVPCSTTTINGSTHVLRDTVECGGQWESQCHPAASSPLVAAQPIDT
Sodium-dependent dopamine transporter, sequence (Q01959 whole entry): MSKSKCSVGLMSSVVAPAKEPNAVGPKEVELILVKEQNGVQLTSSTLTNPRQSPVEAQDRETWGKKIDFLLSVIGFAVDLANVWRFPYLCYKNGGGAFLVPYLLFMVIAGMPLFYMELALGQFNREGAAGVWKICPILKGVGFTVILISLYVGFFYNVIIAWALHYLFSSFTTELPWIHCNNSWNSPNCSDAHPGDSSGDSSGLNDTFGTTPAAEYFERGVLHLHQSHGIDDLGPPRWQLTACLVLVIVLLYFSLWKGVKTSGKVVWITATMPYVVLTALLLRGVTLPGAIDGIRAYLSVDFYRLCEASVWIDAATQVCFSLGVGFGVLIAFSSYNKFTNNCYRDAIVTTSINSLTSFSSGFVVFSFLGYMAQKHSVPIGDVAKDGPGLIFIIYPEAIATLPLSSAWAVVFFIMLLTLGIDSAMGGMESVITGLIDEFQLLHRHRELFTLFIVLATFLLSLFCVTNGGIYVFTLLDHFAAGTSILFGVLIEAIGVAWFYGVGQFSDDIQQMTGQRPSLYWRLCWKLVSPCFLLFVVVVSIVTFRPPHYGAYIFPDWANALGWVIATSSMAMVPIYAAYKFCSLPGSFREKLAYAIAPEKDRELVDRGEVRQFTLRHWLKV
Mitogen-activated protein kinase 14, sequence (Q16539 whole entry): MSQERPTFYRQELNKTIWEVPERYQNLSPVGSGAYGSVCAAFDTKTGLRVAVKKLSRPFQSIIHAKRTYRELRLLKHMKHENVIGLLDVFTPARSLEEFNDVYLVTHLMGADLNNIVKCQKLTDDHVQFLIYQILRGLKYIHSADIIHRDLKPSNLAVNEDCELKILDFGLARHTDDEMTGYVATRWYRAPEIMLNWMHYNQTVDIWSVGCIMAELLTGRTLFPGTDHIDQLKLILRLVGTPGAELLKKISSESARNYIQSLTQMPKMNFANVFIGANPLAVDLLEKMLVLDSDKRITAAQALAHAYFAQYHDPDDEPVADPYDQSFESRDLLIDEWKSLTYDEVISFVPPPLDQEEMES
D(1A) dopamine receptor, sequence (P21728 whole entry): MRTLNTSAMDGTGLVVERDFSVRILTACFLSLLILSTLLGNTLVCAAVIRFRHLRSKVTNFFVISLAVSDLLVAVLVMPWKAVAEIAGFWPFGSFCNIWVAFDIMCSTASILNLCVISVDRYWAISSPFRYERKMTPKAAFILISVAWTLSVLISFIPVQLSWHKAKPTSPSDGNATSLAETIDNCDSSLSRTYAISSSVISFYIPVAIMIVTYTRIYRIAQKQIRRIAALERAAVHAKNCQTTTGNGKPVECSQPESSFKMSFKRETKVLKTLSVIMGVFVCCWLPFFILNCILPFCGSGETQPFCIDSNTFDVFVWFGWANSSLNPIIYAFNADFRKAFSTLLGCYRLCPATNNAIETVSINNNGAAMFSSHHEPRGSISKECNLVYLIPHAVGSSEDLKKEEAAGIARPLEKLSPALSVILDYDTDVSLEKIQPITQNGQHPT
Insulin receptor, sequence (P15127 27-759 limits assumed): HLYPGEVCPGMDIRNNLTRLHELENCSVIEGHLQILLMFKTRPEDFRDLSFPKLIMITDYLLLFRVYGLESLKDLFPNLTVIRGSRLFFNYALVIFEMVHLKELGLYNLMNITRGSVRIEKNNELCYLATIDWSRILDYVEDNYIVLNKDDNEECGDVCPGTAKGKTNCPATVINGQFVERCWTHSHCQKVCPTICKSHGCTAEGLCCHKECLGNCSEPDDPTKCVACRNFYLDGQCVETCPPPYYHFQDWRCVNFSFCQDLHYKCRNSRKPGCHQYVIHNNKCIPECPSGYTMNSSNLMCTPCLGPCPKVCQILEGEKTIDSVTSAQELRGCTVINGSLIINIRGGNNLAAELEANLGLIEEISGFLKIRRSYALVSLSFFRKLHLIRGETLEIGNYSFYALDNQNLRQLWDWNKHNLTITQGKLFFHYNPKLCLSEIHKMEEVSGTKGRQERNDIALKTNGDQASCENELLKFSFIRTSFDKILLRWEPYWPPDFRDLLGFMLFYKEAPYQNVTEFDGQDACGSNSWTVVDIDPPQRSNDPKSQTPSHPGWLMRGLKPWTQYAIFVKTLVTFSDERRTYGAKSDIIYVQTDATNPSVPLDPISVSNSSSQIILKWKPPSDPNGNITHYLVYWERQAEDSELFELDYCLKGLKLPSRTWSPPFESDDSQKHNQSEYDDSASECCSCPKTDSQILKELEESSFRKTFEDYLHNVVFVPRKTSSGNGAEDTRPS
Insulin receptor, sequence (P15127 764-1383 limits assumed): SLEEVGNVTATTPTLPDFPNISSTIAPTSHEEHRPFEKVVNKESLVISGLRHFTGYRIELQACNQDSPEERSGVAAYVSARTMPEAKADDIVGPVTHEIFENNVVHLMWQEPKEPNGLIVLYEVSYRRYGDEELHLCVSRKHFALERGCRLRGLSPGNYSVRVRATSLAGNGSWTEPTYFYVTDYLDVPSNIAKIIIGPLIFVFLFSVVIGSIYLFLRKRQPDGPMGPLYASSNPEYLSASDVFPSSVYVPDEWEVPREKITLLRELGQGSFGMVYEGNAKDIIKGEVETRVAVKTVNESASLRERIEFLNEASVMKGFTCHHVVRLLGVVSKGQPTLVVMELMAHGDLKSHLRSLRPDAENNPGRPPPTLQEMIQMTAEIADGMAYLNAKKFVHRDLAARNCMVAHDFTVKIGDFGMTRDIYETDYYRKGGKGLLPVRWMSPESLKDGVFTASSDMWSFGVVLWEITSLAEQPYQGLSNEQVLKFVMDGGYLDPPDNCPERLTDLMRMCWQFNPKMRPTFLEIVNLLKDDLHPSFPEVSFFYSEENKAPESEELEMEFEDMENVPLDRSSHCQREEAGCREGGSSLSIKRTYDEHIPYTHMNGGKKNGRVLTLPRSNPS
Mitogen-activated protein kinase 1, sequence (P28482 whole entry): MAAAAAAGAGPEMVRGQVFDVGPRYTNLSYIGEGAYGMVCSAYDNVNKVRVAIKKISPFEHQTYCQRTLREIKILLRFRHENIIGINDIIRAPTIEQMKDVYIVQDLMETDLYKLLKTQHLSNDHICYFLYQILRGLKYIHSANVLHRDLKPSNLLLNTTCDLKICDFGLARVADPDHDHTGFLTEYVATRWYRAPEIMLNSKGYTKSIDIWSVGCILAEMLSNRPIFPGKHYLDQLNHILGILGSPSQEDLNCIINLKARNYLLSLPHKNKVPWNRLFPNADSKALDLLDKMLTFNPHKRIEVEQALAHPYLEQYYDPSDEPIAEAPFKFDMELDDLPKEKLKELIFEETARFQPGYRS

CN(C)[C@@H]1C(O)=C(C(N)=O)C(=O)[C@@]2(O)C(O)=C3C(=O)c4c(O)cccc4[C@@](C)(O)[C@H]3C[C@@H]12 [TETRACYCLINE]
Not Active: IC50 [1] | Ki [1] | IC50 (Calcitonin receptor) | IC50 [2] | Ki [2] | IC50 [3] | IC50 [4] | Ki [4] | IC50 [5] | IC50 (D(1A) dopamine receptor) | IC50 [6] | IC50 [7] | Ki [7] | IC50 [8] | Ki [8] | IC50 [9] | Ki [9] | IC50 (Insulin receptor) | IC50 [10] | IC50 [11] | Ki [11] | IC50 [12] | IC50 (Neutrophil elastase) | IC50 [13] | IC50 [14] | IC50 [15] | IC50 [16]

Nc1ccc(S(=O)(=O)Nc2ccnn2-c2ccccc2)cc1 [SULFAPHENAZOLE]
Not Active: IC50 [1] | Ki [1] | IC50 (Calcitonin receptor) | IC50 [2] | Ki [2] | IC50 [3] | IC50 [4] | Ki [4] | IC50 [5] | IC50 (D(1A) dopamine receptor) | IC50 [6] | IC50 [7] | Ki [7] | IC50 [8] | Ki [8] | IC50 [9] | Ki [9] | IC50 (Insulin receptor) | IC50 [10] | IC50 [11] | Ki [11] | IC50 [12] | IC50 (Neutrophil elastase) | IC50 [13] | IC50 [14] | IC50 [15] | IC50 [16]

COc1c(C)c2c(c(O)c1C/C=C(\C)CCC(=O)OCCN1CCOCC1)C(=O)OC2 [MYCOPHENOLATE MOFETIL]
Not Active: IC50 [1] | Ki [1] | IC50 (Calcitonin receptor) | IC50 [2] | Ki [2] | IC50 [3] | IC50 [4] | Ki [4] | IC50 [5] | IC50 (D(1A) dopamine receptor) | IC50 [6] | IC50 [7] | Ki [7] | IC50 [8] | Ki [8] | IC50 [9] | Ki [9] | IC50 (Insulin receptor) | IC50 [10] | IC50 [11] | Ki [11] | IC50 [12] | IC50 (Neutrophil elastase) | IC50 [13] | IC50 [14] | IC50 [15] | IC50 [16]

Nc1nnc(-c2cccc(Cl)c2Cl)c(N)n1 [LAMOTRIGINE]
Not Active: IC50 [1] | Ki [1] | IC50 (Calcitonin receptor) | IC50 [2] | Ki [2] | IC50 [3] | IC50 [4] | Ki [4] | IC50 [5] | IC50 (D(1A) dopamine receptor) | IC50 [6] | IC50 [7] | Ki [7] | IC50 [8] | Ki [8] | IC50 [9] | Ki [9] | IC50 (Insulin receptor) | IC50 [10] | IC50 [11] | Ki [11] | IC50 [12] | IC50 (Neutrophil elastase) | IC50 [13] | IC50 [14] | IC50 [15] | IC50 [16]

NC(=O)c1ccccc1O [SALICYLAMIDE]
Not Active: IC50 [1] | Ki [1] | IC50 (Calcitonin receptor) | IC50 [2] | Ki [2] | IC50 [3] | IC50 [4] | Ki [4] | IC50 [5] | IC50 (D(1A) dopamine receptor) | IC50 [6] | IC50 [7] | Ki [7] | IC50 [8] | Ki [8] | IC50 [9] | Ki [9] | IC50 (Insulin receptor) | IC50 [10] | IC50 [11] | Ki [11] | IC50 [12] | IC50 (Neutrophil elastase) | IC50 [13] | IC50 [14] | IC50 [15] | IC50 [16]

C=CC[C@@H]1/C=C(\C)C[C@H](C)C[C@H](OC)[C@H]2O[C@@](O)(C(=O)C(=O)N3CCCC[C@H]3C(=O)O[C@H](/C(C)=C/[C@@H]3CC[C@@H](O)[C@H](OC)C3)[C@H](C)[C@@H](O)CC1=O)[C@H](C)C[C@@H]2OC [TACROLIMUS ANHYDROUS]
Not Active: IC50 [1] | Ki [1] | IC50 (Calcitonin receptor) | IC50 [2] | Ki [2] | IC50 [3] | IC50 [4] | Ki [4] | IC50 [5] | IC50 (D(1A) dopamine receptor) | IC50 [6] | IC50 [7] | Ki [7] | IC50 [8] | Ki [8] | IC50 [9] | Ki [9] | IC50 (Insulin receptor) | IC50 [10] | IC50 [11] | Ki [11] | IC50 [12] | IC50 (Neutrophil elastase) | IC50 [13] | IC50 [14] | IC50 [15] | IC50 [16]
